In experiment [1] the target is Serine/threonine-protein kinase PAK 6 (Homo sapiens) (UniProt Q9NQU5). Nature of the experiment: Selectivity interaction (KinomeScan (DiscoverX)) EUB0001049a PAK6. To be noted: at 1 µM.
Experiment [2] has as its target Ribosomal protein S6 kinase alpha-4 (Homo sapiens) (UniProt O75676). Nature of the experiment: Selectivity interaction (Kinase screening (Nanosyn)) EUB0000604a RPS6KA4.
Experiment [3] deals with Serine/threonine-protein kinase mTOR (Homo sapiens, UniProt P42345). Nature of the experiment: Selectivity interaction (KinomeScan (DiscoverX)) EUB0000666a MTOR. Particulars: at 10 µM.
Experiment [4] concerns the target Tyrosine-protein kinase JAK2 (Homo sapiens, UniProt O60674). Nature of the experiment: Selectivity interaction (KinomeScan (DiscoverX)) EUB0000607a JAK2. To be noted: at 10 µM.
Experiment [5] deals with Serine/threonine-protein kinase WNK2 (Homo sapiens) (UniProt Q9Y3S1). The experiment can be described thus: Selectivity interaction (Kinase panel (Invitrogen)) EUB0000639a WNK2. To be noted: at 200 nM.
Experiment [6] addresses Serine/threonine-protein kinase 38 (Homo sapiens) (UniProt Q15208). Nature of the experiment: Selectivity interaction (KinomeScan (DiscoverX)) EUB0000229b STK38. Particulars: at 10 µM.
The test system of experiment [7] is Tyrosine-protein kinase ABL1 (Homo sapiens), P00519 [H396P]. Nature of the experiment: Selectivity interaction (KinomeScan (DiscoverX)) EUB0000229b ABL1. Particulars: at 1 µM.
Experiment [8] deals with T1, Ephrin type-A receptor 6 (Homo sapiens) (UniProt Q9UF33).
T1 sequence (whole entry): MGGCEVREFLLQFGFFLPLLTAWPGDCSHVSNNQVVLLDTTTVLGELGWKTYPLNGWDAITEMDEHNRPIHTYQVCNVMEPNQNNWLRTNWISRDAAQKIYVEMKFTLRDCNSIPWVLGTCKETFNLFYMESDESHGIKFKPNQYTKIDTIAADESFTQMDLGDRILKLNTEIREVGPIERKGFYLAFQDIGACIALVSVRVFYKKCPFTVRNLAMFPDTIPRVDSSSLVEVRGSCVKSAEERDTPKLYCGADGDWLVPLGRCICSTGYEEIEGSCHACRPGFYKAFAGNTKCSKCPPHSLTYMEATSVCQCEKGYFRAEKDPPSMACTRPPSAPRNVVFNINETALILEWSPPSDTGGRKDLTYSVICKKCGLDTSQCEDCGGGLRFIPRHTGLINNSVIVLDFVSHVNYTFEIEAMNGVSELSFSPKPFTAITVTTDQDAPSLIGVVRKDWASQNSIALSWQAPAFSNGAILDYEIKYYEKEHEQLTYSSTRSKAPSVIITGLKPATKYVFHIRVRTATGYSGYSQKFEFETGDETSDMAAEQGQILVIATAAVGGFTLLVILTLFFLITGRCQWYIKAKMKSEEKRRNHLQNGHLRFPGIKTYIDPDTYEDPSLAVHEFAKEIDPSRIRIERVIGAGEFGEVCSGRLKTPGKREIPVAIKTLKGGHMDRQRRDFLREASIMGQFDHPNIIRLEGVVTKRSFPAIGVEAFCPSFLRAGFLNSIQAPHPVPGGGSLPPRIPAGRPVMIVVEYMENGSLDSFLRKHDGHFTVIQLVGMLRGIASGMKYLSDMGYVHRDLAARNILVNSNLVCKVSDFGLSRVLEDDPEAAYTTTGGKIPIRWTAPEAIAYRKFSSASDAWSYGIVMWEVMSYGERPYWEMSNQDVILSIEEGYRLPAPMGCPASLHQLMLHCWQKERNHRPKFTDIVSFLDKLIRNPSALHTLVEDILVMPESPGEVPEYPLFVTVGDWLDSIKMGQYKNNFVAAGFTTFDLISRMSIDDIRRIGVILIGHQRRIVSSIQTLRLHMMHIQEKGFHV
Nature of the experiment: Selectivity interaction (KinomeScan (DiscoverX)) EUB0000229b EPHA6. To be noted: at 10 µM.

For experiment [9], the target named is T2, Serine/threonine-protein kinase TAO2 (Homo sapiens) (UniProt Q9UL54).
T2 sequence (whole entry): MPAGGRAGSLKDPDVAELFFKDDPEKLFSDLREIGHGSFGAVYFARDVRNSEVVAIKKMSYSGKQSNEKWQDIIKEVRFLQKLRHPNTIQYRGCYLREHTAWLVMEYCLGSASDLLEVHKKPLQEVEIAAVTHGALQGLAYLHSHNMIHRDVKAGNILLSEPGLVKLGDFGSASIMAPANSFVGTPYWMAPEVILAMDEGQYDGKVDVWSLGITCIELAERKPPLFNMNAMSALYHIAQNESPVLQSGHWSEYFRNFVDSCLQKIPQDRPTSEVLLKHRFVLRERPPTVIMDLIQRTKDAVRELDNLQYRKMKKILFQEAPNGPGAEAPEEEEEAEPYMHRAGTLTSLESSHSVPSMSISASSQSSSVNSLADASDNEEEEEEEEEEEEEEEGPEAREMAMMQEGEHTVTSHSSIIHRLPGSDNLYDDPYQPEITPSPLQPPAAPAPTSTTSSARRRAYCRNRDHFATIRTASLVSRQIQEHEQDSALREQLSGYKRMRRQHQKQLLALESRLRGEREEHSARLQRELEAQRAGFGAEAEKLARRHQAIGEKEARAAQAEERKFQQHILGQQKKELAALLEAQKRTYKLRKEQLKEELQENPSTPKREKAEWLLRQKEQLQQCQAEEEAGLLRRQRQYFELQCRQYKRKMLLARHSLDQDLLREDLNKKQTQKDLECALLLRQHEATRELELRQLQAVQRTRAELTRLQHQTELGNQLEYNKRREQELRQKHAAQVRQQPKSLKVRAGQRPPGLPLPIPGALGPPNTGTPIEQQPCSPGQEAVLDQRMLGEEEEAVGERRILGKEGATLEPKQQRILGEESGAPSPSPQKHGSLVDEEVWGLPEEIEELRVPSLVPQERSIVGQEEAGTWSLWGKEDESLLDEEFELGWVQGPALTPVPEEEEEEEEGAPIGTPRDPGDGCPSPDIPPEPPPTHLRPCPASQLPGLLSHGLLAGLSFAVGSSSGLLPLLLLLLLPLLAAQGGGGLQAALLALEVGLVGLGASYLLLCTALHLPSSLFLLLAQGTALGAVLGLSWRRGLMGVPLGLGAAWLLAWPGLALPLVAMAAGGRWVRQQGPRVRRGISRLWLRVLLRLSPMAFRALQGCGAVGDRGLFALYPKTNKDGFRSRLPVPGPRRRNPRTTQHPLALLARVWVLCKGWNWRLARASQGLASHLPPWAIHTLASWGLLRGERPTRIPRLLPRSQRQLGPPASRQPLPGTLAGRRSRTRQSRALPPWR
Nature of the experiment: Selectivity interaction (ActivX KiNativ screen (ex vivo kinase selectivity in human PBMCs)) EUB0001619a TAOK2. Format: cell-based. To be noted: PBMC, at 1 µM.

Each structure is given as a SMILES string.

Chain of Serine/threonine-protein kinase PAK 6 (Homo sapiens) (Q9NQU5 whole entry, looked up): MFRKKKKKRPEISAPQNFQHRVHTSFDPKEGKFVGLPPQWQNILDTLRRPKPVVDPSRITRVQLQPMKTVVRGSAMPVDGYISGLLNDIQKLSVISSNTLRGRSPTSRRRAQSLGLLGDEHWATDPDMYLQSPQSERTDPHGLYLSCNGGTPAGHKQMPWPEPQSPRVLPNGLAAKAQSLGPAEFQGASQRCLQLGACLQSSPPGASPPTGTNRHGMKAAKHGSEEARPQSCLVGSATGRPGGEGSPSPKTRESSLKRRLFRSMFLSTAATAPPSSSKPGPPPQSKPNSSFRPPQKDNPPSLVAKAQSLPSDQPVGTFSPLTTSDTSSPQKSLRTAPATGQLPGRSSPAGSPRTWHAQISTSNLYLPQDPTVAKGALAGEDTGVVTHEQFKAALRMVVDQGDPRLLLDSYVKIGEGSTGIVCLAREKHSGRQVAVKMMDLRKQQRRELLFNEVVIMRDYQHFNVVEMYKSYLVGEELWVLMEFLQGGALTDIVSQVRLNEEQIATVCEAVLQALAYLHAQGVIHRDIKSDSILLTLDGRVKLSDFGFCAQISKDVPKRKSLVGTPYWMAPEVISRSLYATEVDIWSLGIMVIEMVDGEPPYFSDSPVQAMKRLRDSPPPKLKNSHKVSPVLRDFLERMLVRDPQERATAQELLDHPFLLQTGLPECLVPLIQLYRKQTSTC
Chain of Tyrosine-protein kinase JAK2 (O60674 whole entry): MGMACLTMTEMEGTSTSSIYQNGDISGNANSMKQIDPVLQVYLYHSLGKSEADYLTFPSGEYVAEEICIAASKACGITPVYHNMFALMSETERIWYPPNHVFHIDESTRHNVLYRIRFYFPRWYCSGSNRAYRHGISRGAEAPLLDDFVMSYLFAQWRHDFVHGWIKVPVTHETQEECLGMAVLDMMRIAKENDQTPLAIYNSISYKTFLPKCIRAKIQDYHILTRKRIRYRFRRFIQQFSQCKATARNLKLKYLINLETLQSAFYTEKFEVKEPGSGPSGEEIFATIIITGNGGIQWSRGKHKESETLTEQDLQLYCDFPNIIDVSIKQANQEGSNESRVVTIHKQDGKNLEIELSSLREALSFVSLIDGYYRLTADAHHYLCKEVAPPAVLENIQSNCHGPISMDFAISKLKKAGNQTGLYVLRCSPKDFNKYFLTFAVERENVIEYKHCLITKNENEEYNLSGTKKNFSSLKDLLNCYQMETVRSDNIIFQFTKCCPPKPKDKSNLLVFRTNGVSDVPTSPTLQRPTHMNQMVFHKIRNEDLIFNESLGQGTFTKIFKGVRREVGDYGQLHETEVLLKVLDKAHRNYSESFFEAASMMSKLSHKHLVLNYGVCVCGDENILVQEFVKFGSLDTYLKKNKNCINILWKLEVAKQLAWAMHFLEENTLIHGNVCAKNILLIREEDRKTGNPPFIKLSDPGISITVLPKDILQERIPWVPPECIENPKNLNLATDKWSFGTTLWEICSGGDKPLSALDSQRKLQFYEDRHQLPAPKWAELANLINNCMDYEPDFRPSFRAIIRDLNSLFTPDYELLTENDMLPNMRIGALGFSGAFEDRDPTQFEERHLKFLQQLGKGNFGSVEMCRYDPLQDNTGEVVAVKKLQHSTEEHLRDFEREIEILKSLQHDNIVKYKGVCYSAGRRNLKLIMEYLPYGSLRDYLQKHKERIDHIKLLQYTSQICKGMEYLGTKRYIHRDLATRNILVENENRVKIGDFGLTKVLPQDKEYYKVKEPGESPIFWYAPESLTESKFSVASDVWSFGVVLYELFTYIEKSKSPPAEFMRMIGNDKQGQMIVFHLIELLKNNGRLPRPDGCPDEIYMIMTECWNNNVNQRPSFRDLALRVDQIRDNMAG
Chain of Serine/threonine-protein kinase WNK2 (Homo sapiens) (Q9Y3S1 whole entry): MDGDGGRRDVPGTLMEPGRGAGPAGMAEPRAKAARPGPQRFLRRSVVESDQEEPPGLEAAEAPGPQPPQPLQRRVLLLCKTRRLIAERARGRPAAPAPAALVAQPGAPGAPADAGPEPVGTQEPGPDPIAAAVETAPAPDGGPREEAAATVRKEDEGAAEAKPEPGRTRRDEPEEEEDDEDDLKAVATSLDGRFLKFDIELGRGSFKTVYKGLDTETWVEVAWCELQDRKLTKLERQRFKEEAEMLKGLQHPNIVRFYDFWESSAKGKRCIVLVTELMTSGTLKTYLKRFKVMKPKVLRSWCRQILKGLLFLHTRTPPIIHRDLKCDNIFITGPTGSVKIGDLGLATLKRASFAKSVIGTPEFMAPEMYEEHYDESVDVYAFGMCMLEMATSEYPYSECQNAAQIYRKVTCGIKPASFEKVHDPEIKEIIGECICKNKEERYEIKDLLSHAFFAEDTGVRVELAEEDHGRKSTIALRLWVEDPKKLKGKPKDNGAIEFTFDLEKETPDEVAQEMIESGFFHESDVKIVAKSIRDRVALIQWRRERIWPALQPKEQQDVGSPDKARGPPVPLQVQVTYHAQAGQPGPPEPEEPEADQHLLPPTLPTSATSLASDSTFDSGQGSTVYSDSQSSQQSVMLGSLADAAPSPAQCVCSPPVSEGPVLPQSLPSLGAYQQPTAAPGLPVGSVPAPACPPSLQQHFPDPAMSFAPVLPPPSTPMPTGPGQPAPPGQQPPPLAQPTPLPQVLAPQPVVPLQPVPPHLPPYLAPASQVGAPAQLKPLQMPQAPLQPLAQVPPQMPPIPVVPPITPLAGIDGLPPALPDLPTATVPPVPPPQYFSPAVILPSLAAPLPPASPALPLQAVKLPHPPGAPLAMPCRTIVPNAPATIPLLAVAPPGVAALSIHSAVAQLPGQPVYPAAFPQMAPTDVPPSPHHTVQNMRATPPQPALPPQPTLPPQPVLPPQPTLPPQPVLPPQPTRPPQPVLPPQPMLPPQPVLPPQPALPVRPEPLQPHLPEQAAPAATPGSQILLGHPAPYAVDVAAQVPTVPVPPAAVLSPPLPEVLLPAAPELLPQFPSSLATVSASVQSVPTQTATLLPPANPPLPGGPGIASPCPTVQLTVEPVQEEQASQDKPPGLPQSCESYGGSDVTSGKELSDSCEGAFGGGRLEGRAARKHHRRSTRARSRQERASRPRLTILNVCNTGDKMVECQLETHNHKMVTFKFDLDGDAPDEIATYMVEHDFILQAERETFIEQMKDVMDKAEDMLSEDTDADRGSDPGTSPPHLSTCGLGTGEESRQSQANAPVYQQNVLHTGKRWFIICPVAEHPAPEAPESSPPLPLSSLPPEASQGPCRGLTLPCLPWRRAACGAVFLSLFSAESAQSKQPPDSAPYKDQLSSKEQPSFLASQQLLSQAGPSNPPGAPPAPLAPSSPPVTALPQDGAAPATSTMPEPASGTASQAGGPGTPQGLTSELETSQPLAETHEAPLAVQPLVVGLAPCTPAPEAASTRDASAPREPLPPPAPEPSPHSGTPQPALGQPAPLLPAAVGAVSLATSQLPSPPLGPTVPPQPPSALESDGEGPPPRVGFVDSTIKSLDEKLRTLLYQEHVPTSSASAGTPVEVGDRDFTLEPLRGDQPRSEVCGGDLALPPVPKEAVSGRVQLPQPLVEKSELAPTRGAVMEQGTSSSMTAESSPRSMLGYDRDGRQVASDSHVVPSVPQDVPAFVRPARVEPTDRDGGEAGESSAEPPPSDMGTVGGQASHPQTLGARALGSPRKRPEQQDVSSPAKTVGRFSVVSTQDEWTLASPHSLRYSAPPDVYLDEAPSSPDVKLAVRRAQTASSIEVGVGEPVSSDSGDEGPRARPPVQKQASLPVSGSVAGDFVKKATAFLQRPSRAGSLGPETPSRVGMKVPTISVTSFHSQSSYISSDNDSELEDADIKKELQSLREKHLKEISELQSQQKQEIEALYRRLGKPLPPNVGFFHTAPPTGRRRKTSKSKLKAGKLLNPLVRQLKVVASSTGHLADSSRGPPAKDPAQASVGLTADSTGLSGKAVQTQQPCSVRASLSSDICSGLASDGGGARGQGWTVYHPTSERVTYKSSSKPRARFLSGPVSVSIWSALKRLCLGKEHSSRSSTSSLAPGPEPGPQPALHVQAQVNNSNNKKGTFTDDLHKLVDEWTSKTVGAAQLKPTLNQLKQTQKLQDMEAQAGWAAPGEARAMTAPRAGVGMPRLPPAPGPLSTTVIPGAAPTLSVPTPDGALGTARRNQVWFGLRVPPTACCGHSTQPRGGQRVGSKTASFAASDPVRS
Chain of Ribosomal protein S6 kinase alpha-4 (Homo sapiens) (O75676 whole entry, looked up): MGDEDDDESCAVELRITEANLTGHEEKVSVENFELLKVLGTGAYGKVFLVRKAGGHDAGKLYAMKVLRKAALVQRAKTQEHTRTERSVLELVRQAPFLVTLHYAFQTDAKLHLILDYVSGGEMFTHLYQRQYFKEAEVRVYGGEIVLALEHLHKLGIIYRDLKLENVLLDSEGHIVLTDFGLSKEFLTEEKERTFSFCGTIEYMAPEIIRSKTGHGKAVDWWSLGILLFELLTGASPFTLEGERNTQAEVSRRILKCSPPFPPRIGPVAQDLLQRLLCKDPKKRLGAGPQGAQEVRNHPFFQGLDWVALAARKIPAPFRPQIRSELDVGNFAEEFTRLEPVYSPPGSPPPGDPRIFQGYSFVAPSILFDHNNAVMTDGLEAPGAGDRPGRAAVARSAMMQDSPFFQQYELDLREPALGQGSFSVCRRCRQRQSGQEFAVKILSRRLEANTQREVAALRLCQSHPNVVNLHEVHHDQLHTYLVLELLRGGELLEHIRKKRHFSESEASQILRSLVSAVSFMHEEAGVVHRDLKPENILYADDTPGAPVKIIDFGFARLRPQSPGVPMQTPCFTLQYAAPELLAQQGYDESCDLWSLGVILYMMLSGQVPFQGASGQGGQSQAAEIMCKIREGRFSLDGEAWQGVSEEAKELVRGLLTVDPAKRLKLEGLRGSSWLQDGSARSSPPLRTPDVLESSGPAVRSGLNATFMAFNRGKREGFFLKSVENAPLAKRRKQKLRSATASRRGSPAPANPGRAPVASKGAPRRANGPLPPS

As for `COc1cc(Nc2nc(C)cc(-c3cnn4nc(OC)ccc34)n2)cc(C(F)(F)F)c1`, the % of control in [1] was found to be 75%.
With `Cc1cnc(Nc2ccc(F)cc2Cl)nc1-c1c[nH]c(C(=O)N[C@H](CO)c2cccc(Cl)c2)c1`, in [2], the % of inhibition came out at 6%.
The compound `O=C(NOC[C@H](O)CO)c1ccc(F)c(F)c1Nc1ccc(I)cc1F` gave a % of control in [3] of 100%.
In [4], `CNC(=O)Nc1ccc(-c2nc(N3CC4CCC(C3)O4)c3cnn(C4CCC5(CC4)OCCO5)c3n2)cc1` displayed a % of control of 100%.
With `CC[C@@H]1[C@H](F)C(=O)N[C@@H]1COc1nccc2cc(C(N)=O)c(OC)cc12` [ZIMLOVISERTIB], the % of inhibition in experiment [5] stood at 3.33%.
Turning to `COc1cc(N(C)c2ccnc3ccc(C(F)(F)F)cc23)cc(OC)c1OC`, the % binding in experiment [6] turned out to be 83%; in experiment [7], 78%; in experiment [8], 97%.
For the compound `N#Cc1cccc(-c2c[nH]c3ncnc(N4CCOCC4)c23)c1`, the % of inhibition in experiment [9] was -3%.
